Values of other authors in patent US20040072765A1, “Cardiovascular and bone treatment using isoflavones” (Novogen Research Pty Ltd., priority 1999, published 2004).

Experiments:
[1] = men and women
[2] = low doses, rats

Structure (SMILES)	increase in HDL levels [1]	cortical and trabecular bone density [2]
CCOC(=O)C(C)(C)Oc1ccc(Cl)cc1 [clofibrinate]	about 10%	
O=c1c(-c2ccc(O)cc2)coc2cc(O)cc(O)c12 [Genistein, genistein]		increased
